Results on one molecule are retold here after US20200352889A1, “CYSTATHIONINE COMPOSITIONS AND METHODS OF TREATMENT FOR HEALTH CONDITIONS” (THE REGENTS OF THE UNIVERSITY OF COLORADO, A BODY CORPORATE, priority 2011, published 2020).

One assay concerns the target T1, CGL (Mus musculus, UniProt Q8VCN5).
T1 construct: endogenous in cells; host or cells: C57BL/6J wild-type mice (whole animal, in vivo)
As to the kind of experiment: Daily injection of PPG in WT mice, plasma cystathionine, Hcy, methionine and cysteine. In kind it is in vivo. Here is the method:
It is believed that the longevity of this cystathionine accumulation with repeated injections of PPG over time in mice has not been properly examined. Consequently, daily injections of PPG were given to WT mice (n=7) each morning over a period of 4 days. Plasma samples were taken from these mice in the evening of each day by non-lethal tail bleed and the levels of cystathionine, Hcy, methionine and cysteine were determined (FIG. 4). Inactivation of CGL was observed and was accompanied by a 56-fold increase in the plasma level of cystathionine on day 1. […] Cysteine levels subsequently returned to near normal levels as the effects of the PPG treatment diminished.
Propensity for hepatic steatosis was examined in HO and wild type control mice using a methionine-choline deficient amino acid defined and iron supplemented diet (#518810 Dyets Inc., Bethlehem, Pa.)) and an isocaloric amino acid defined Lombardi choline sufficient diet with methionine control diet (518754, Dyets Inc., Bethlehem, Pa.) for 19 days as described previously (7). Experimental hypercystathionemia was induced by IP injection of the CGL inactivator PPG (50 mg·day-1·kg-1) as described previously (8). ER stress was induced in mice by a single IP injection with tunicamycin at 0.5 mg/kg body weight (volume <=1.0 ml). Control mice were sham treated by injection with an equal volume of PBS (9,10).
Determination of plasma levels of methionine cycle metabolites was performed as described previously (11).
Previous work by Abeles and Walsh synthesized and tested a range of acetylenic substrates capable of irreversible inactivation of CGL. […] For our purposes this method has the additional benefit of allowing us to investigate the possible protective effects of elevated cystathionine in isolation from its role as a cysteine donor. To our knowledge, the longevity of this cystathionine accumulation with repeated injections of PPG over time in mice has not been examined. Daily injections of PPG to WT mice were given (n=7) each morning over a period of 4 days. Plasma samples were taken from these mice in the evening of each day by non-lethal tail bleed and the levels of cystathionine, Hcy, methionine and cysteine were determined (FIG. 4). It was observed that inactivation of CGL was accompanied by a 56-fold increase in the plasma level of cystathionine on day 1. […] Cysteine levels subsequently returned to near normal levels as the effects of the PPG treatment diminished. These experiments allowed us to define an optimal time frame for examining the possible protective effects of PPG mediated cystathionine accumulation in WT mice. The effect of PPG on liver health was assessed by determining ALT values before PPG treatment and at each subsequent time point studied.

Another assay deals with HepG2 cells. The assay is described as follows: Tunicamycin-induced cell death, LDH release, HepG2 cells. In kind it is cell-based, human. The following applies: data not shown. How it is done: Cells were seeded in triplicate at ˜75% confluence and pre-treated with either PPG) (5 mM), Cystathionine (1 mM) or with just complete media (DMEM, 10% FBS) as a control. After 24 hr pre-treatment, cells looked normal, with minimal floating cells. Fresh media with 1% FBS was then added to each well, the cells were further treated with Tm (either 5 or 10 ug)/ml. After 18 hr. treatment with Tunicamycin, cells were photographed under phase-contrast with a Zeiss Axiovert 25 microscope for evidence of dead floating cells. Cells from the group treated solely with tunicamycin became strikingly hyper-refringent, detached from the substratum and floated in the media. […] To further evaluate a role for cystathionine in resisting the induction of cell death by tunicamycin, cell lysis was quantified by assaying lactate dehydrogenase (LDH) release. The enzyme activity was determined spectrophotometrically and the amount of enzyme leak was expressed as a percentage of the LDH activity observed in untreated control cells. […]
Cells were seeded in triplicate at ˜75% confluence and pre-treated with either PPG) (5 mM), Cystathionine (1 mM) or with just complete media (DMEM, 10% FBS) as a control. […] To further evaluate a role for cystathionine in resisting the induction of cell death by tunicamycin, cell lysis was quantified by assaying lactate dehydrogenase (LDH) release. […]
(In general: LDH in the medium is a marker of cell lysis.)

The subject of assay [1] is WT mice treated with thapsagargin. The assay is described as follows: Thapsagargin-induced acute tubular necrosis in WT mice in the presence and absence of PPG. Format: in vivo, mouse. The settings on record: single IP thapsagargin + daily PPG, three days. An excerpt: Wild type mice (WT; n=6) to a single sub-lethal intraperitoneal injection of thapsagargin in the presence and absence of the CGL inactivating compound propargylglycine (PPG). WT mice were randomly assigned to one of four treatment groups (n=6 for each group): 1). control, IP injected with PBS (See FIG. 13, Panel A); 2). I.P. injection with PPG (See FIG. 13, Panel B); 3). single I.P […] thapsagargin (See FIG. 13, Panel C); and 4). thapsagargin+PPG (See FIG. 13, Panel D). In groups 2 and 4, PPG treatment was maintained by daily injection until sacrifice at three days post vehicle/thapsagargin injection. After the completion of this treatment regime, all mice were anaesthetized (isoflourane/oxygen) and sacrificed by decapitation.
Wild type mice (WT; n=6) to a single sub-lethal intraperitoneal injection of thapsagargin in the presence and absence of the CGL inactivating compound propargylglycine (PPG). WT mice were randomly assigned to one of four treatment groups (n=6 for each group): 1). control, IP injected with PBS (See Panel A); 2). I.P. injection with PPG (See Panel B); 3). single I.P […] thapsagargin (See Panel C); and 4). thapsagargin+PPG (See Panel D). In groups 2 and 4, PPG treatment was maintained by daily injection until sacrifice at three days post vehicle/thapsagargin injection. […]

In another assay the test system is hepatic CGL. The settings on record: I.P. injection; cited from earlier work.
[2] abbreviates: daily PPG IP, declined back to normal as PPG efficacy diminished.

T1 sequence (Q8VCN5 whole entry): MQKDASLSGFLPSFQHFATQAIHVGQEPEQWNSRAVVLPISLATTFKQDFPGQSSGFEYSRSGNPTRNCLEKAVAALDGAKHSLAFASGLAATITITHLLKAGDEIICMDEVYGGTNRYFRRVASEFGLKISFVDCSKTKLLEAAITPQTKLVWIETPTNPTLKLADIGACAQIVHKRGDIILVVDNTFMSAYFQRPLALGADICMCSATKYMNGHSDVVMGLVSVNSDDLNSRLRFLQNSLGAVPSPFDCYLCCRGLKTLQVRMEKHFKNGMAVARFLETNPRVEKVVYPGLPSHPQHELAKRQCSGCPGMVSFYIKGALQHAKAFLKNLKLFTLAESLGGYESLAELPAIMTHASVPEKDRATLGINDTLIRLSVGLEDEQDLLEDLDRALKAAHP

Consider `C#CCC(N)C(=O)O` (racemic) [PPG, D,L-2-amino-4-pentynoic acid], for which the “increase in the plasma level of cystathionine” value (“increase in the plasma level” for short) on CGL (daily PPG IP 50 mg/kg/day, day 1, vs untreated animals) was 56 fold. In addition, the “increase in the plasma level” value on CGL (daily PPG IP, day 3) was 30 fold. Besides, the “increase in the plasma level” value on CGL (daily PPG IP, day 4, vs untreated animals) is 8 fold. At CGL (setting [2]), the plasma methionine entry is “relatively mild elevation” and the “plasma total Hcy (tHcy)” value is on record as “relatively mild elevation”. The plasma cysteine levels entry on CGL (daily PPG IP, first and second days) is on record as “concomitant decrease”. In addition, the plasma cystathionine accumulation result at CGL (daily PPG IP, second day) is given as “maximal accumulation persisted”. Further, the “protection against tunicamycin-induced cell death compared with 293AD cells” value in the assay on HepG2 cells is on record as “Essentially identical results”. In assay [1], the “thapsagargin-induced renal morphological changes (acute tubular necrosis, histology)” value was “completely ablated”. Further, in the assay on hepatic CGL, the “duration of cystathionine accumulation” value is given as “approximately one day”, the “inactivation of hepatic CGL activity” value is on record as “rapidly inactivate” and the “time to accumulation of cystathionine” value was “within one hour”.
